Results published in publication PMC9196953 (Drug development research, 1999).
Where two headings read alike, the source gives them in different places.

How the values were obtained:
A2B receptor = tested on: A2B receptor; design: method as in Brackett and Daly, 1994; conditions: ref Brackett and Daly, 1994; cited from earlier work
human A2B receptors [1] = biological target: T1, human A2B receptors (Homo sapiens, UniProt P29275); conditions: ref Jacobson et al., 1999, cited from earlier work
T1 construct: expressed in transfected cells; host or cells: HEK-293
T1 sequence (P29275 1-332): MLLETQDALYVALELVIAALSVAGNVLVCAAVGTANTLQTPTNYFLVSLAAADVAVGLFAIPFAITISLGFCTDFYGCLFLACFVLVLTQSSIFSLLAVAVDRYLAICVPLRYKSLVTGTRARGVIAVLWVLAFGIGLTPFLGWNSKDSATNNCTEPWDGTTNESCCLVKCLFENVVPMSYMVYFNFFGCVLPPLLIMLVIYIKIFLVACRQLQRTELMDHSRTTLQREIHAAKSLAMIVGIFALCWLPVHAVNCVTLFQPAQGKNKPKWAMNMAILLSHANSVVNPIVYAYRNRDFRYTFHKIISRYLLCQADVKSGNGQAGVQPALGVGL

rat A2A receptors = biological target: T2, rat A2A receptors (Rattus norvegicus, UniProt P30543); assay: Displacement of [3H]CGS 21680 binding to A2A receptors in rat striatal membranes; conditions: read-out: Ki rA2A
T2 construct: to A2A receptors from rat striatal membranes; from tissue; host or cells: rat striatal membranes
T2 sequence (P30543 whole entry): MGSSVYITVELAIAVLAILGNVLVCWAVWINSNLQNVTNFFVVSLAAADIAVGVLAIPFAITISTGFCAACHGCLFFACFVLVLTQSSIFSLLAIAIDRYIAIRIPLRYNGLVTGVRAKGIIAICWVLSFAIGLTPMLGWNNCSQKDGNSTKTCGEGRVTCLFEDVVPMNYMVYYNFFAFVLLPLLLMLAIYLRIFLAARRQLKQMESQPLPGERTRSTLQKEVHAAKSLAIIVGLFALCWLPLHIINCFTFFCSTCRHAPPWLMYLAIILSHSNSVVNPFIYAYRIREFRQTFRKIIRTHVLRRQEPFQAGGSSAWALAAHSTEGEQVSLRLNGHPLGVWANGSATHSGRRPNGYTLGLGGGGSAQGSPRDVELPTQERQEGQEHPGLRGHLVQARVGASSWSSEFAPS
Method: (§1) All nonradioactive compounds were initially dissolved in DMSO and diluted with buffer to the final concentration, where the amount of DMSO never exceeded 2%. Incubations were terminated by rapid filtration over Whatman GF/B filters using a Brandell cell harvester. The tubes were rinsed three times with 3 mL buffer each.
(§2) At least six different concentrations of competitor, spanning 3 orders of magnitude adjusted appropriately for the IC50 value of each compound, were used. IC50 values, calculated with the nonlinear regression method implemented in Graph-Pad Prism (San Diego, CA) were converted to apparent Ki values as described by [Linden [1982]]. Hill coefficients of the tested compounds were in the range of 0.8–1.1.
(§3) At A2B receptors, two radioligand binding assays (Table 1) were used. Ki values of xanthine derivatives were determined in displacement of binding of the non-selective radioligands […], 8 (4-(2-[7-amino-2-{furyl}{1,2,4}triazolo{2,3-a}{1,3,5}tr nzyl)-8-phenyloxyacetate-1-propyl-xanthine), at human A2B receptors expressed in HEK-293 cell membranes [[Linden and Jacobson, 1998]]. In order to evaluate selectivity, selected derivatives were subjected to standard binding assays at A1, A2A, and A3 receptors. The initial screening utilized rat brain A1/A2A receptors (with radioligands [^3H]R-PIA and [^3H]CGS-21680), and selected compounds were examined at the recombinant human subtypes (Table 1), using [^3H]CPX ([^3H]8-cyclopentyl-1,3-dipropylxanthine) and ^125I-ZM 241385, ^125I-4-(2-[7-amino-2-[2-furyl][1,2,4]triazolo[2,3-a][1,3,5]triazin-5-yl-amino]ethyl)phenol) [[Palmer et al., 1996]].

human A2A receptors = biological target: T3, human A2A receptors (Homo sapiens, UniProt P29274); assay: Binding at recombinant human A2A receptors expressed in HEK-293 cells vs [125I]ZM241385; conditions: recombinant human A2A in HEK-293 cells, read-out: Ki A2A (h) (converted)
T3 construct: expressed in transfected cells; host or cells: HEK-293
T3 sequence (P29274 whole entry): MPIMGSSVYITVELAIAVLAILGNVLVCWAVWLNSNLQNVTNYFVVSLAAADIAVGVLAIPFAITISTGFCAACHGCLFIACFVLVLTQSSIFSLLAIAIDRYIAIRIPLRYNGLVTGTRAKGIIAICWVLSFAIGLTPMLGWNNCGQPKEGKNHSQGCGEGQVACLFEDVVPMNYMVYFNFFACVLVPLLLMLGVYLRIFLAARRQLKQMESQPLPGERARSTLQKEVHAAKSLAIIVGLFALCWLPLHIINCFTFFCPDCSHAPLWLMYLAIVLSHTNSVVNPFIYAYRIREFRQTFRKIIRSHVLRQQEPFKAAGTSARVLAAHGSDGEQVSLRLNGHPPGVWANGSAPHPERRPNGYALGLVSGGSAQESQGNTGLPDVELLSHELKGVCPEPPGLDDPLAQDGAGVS
Method: as §1, §2, §3

human A2B receptors [2] = biological target: T1, human A2B receptors; assay: Binding at human A2B receptors expressed in HEK-293 cells vs [3H]ZM241385; conditions: for rA1/hA2B: ratio of Ki rat A1 to Ki human A2B
Method: The plasmid was amplified in competent JM109 cells and plasmid DNA isolated using Wizard Megaprep columns (Promega Corp., Madison, WI).
Colonies were selected by growth of cells in 0.6 mg/mL G418. Transfected cells were maintained in DMEM supplemented with Hams F12 nutrient mixture (1/1), 10% newborn calf serum, 2 mM glutamine, and containing 50 IU/mL penicillin, 50 μg/mL streptomycin, and 0.2 mg/mL Geneticin (G418, Boehringer Mannheim, Indianapolis, IN).
Confluent monolayers of HEK-A2B cells were washed with PBS followed by ice-cold Buffer A (10 mM HEPES, 10 mM EDTA, pH 7.4) with protease inhibitors ([…] benzamidine, […], and […] of each aprotinin, pepstatin, and leupeptin). The cells were homogenized in a Polytron (Brinkmann) for 20 sec, centrifuged at 30,000g, and the pellets washed twice with buffer HE (10 mM HEPES, 1 mM EDTA, pH 7.4 with protease inhibitors). The final pellet was resuspended in buffer HE, supplemented with 10% sucrose and frozen in aliquots at −80°C. For binding assays, membranes were thawed and diluted 5–10-fold with HE to a final protein concentration of approximately 1 mg/mL. […] After incubating for 20 min at room temperature, 50 mL of 10 mg/mL Na-metabisulfite in water was added the quench the reaction. The reaction products were applied to a C18 HPLC column using 4 mM phosphate, pH 6.0/methanol. […] The incubation time was 3 h at 21°C. […] Membranes were filtered on Whatman GF/C filters using a Brandell cell harvester (Gaithersburg, MD) and washed three times over 15–20 sec with ice-cold buffer (10 mM Tris, 1 mM MgCl2, pH 7.4). […] Data from replicate experiments are tabulated as means ± SEM.
At A2B receptors, two radioligand binding assays (Table 1) were used. […] In order to evaluate selectivity, selected derivatives were subjected to standard binding assays at A1, A2A, and A3 receptors.

human A3 receptors = biological target: T4, human A3 receptors (Homo sapiens, UniProt P0DMS8); assay: Displacement of [125I]AB-MECA binding at human A3 receptors expressed in HEK cells; conditions: read-out: Ki hA3
T4 construct: expressed in transfected cells; host or cells: HEK-293
T4 sequence (P0DMS8 1-318): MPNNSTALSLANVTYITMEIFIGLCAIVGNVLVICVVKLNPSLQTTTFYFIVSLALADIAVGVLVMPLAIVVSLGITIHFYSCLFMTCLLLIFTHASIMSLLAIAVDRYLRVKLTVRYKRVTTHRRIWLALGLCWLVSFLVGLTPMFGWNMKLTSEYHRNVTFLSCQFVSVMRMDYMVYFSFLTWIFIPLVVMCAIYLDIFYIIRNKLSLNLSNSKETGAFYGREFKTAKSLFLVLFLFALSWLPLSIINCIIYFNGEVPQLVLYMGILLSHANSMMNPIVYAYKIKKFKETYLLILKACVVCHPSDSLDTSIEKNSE
Method: as §3

human A1 receptors = biological target: T5, human A1 receptors (Homo sapiens, UniProt P30542); assay: Binding at recombinant human A1 receptors expressed in HEK-293 cells vs [3H]CPX; conditions: recombinant human A1 in HEK-293 cells
T5 construct: expressed in transfected cells; host or cells: HEK-293
T5 sequence (P30542 1-326): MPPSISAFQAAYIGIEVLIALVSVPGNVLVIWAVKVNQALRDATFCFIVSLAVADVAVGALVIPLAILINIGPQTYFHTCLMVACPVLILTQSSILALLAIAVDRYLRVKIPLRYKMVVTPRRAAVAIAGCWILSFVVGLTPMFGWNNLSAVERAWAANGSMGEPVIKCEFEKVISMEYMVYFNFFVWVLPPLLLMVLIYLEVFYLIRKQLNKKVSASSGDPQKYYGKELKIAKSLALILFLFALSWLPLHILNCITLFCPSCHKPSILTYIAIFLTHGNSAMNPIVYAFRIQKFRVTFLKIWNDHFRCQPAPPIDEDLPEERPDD
Method: as §1, §2, §3

rat A1 receptors = biological target: T6, rat A1 receptors (Rattus norvegicus, UniProt P25099); assay: Displacement of [3H]R-PIA binding to A1 receptors in rat brain membranes; conditions: read-out: Ki rA1
T6 construct: to A1 receptors from rat cerebral cortical membranes; from tissue; host or cells: rat cerebral cortical membranes
T6 sequence (P25099 1-326): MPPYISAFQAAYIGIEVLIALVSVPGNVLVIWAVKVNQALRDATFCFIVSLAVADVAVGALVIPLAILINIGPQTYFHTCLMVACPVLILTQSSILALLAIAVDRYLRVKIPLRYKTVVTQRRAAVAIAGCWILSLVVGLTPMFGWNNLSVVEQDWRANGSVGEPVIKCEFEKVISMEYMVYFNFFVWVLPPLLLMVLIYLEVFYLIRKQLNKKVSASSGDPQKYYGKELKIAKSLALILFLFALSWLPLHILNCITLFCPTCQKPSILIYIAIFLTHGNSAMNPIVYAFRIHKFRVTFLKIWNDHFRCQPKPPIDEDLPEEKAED
Method: as §1, §2, §3

[3] = HEK-293 cells, vs [3H]ZM241385, read-out: Ki hA2B
[4] = rounded values given in text, read-out: Ki at human A2B receptors

Compound | selectivity as antagonist at the A2B receptor vs. other subtypes (A2B receptor) | enhancement of affinity at A2B receptors (human A2B receptors [1]; relative to theophylline, 2) | selectivity for human A2B receptors vs. A1, A2A, and A3 adenosine receptors (human A2B receptors [1]) | Ki (rat A2A receptors) | Ki (human A2A receptors) | Ki (human A2B receptors [2]; [3]) | rA1/hA2B (human A2B receptors [2]) | Ki (human A3 receptors) | Ki (human A1 receptors) | Ki (rat A1 receptors) | Ki (human A2B receptors [2]; [4])
O=c1nc2[nH]c3ccccc3nc-2c(=O)[nH]1 [Alloxazine] | approximately one order of magnitude | – | – | – | – | – | – | – | – | – | –
Cn1c(=O)c2[nH]c(-c3ccccc3)nc2n(C)c1=O [Compound 3] | – | 22 fold | – | – | – | – | – | – | – | – | –
CCCn1c(=O)c2[nH]c(-c3ccc(OCC(=O)ON4C(=O)CCC4=O)cc3)nc2n(CCC)c1=O [Compound 4d] | – | – | approximately 20 fold | – | – | – | – | – | – | – | –
CCCn1c(=O)c2[nH]c(-c3ccc(OCC(=O)NN4C(=O)CCC4=O)cc3)nc2n(CCC)c1=O [Compound 10, 8-[4-[(Carboxymethyl)oxy]phenyl]-1,3-di-(n-propyl)xanthine N,N-Succinylhydrazide] | – | – | – | 805 ± 44 nM | 27.2 nM | 18.6 ± 6.1 nM | 3.0 | 766 ± 176 nM | 75.2 nM | 55.9 ± 25.1 nM | –
CCCn1c(=O)c2[nH]c(-c3ccc(OCC(=O)NN4C(=O)C5CC=CCC5C4=O)cc3)nc2n(CCC)c1=O (stereo not drawn) [Compound 18b, 8-[4-[(Carboxymethyl)oxy]phenyl]-1,3-di-(n-propyl)xanthine N,N-(cis-1,2,3,6-Tetrahydrophthaloyl)-hydrazide] | – | – | – | 689 ± 477 nM | 301 nM | 10 ± 3 nM | 3.6 | 370 ± 190 nM | 129 nM | 36.4 ± 6.2 nM | –
CCCn1c(=O)c2[nH]c(-c3ccc(OCC(=O)NN4C(=O)CC[C@H](NC(=O)C(F)(F)F)C4=O)cc3)nc2n(CCC)c1=O [Compound 24b] | – | – | – | 440 ± 106 nM | 178 nM | 13 ± 3.5 nM | 4.1 | 726 ± 245 nM | 149 nM | 53.5 ± 6.5 nM | –
CCCn1c(=O)c2[nH]c(-c3ccc(OCC(=O)NNC(=O)[C@H](CCSC)NC(=O)OC(C)(C)C)cc3)nc2n(CCC)c1=O [Compound 26, 8-[4-[(Carboxymethyl)oxy]phenyl]-1,3-di-(n-propyl)xanthine N-(N-tert-Butoxycarbonyl-L-methionyl)-hydrazide] | – | – | – | 524 ± 285 nM | – | 39.7 ± 13.6 nM | 2.8 | 690 ± 570 nM | – | 113 ± 27 nM | 40 nM
CCCn1c(=O)c2[nH]c(-c3ccc(OCC(=O)NNC(=O)CNC(=O)CNC(=O)OCc4ccccc4)cc3)nc2n(CCC)c1=O [Compound 27, 8-[4-[(Carboxymethyl)oxy]phenyl]-1,3-di-(n-propyl)xanthine N-(N-Benzyloxycarbonyl-glycylglycinyl)hydrazide] | – | – | – | 609 ± 95 nM | 830 nM | 10.8 ± 5 nM | 3.3 | 323 ± 47 nM | 200 nM | 36 ± 6.6 nM | 11 nM
